According to patent publication US11510920B2, “Compositions and methods for treating EZH2-mediated cancer” (Icahn School of Medicine at Mount Sinai, priority 2016, dated 2022):

Tests used:
Assay type in all cases: cell-based
[1] = test system: MDA-MB-468 cells; assay: Proliferation assay (IncuCyte cell confluence), MDA-MB-468; conditions: Homo sapiens, concentration for 50% of maximal inhibition of cell proliferation
Protocol: (§1) 1-3×10^3 cells were seeded in 96-well plates in duplicates and treated at the indicated compound concentrations. Cells were monitored using the IncuCyte® live cell imaging system (Essen BioScience™, Ann Arbor, Mich.) which was placed in a cell culture incubator operated at 37° C. and 5% CO2. Cell confluence was determined using calculations derived from phase-contrast images. The concentration for 50% of maximal inhibition of cell proliferation (GI50) values were determined by fitting to a standard four-parameter logistic using GraphPad Prism® v5. Graphs depicting the GI50s of select EZH2 degraders/disruptors described here for various cancer cell lines are shown in FIGS. 4-49.

[2] = test system: MCF-7 cells; assay: Proliferation assay (IncuCyte cell confluence), MCF-7; conditions: Homo sapiens, MCF7, concentration for 50% of maximal inhibition of cell proliferation
Protocol: as §1

[3] = test system: BT549 cells; assay: Proliferation assay (IncuCyte cell confluence), BT549; conditions: Homo sapiens, BT-549, concentration for 50% of maximal inhibition of cell proliferation
Protocol: as §1

[4] = test system: HCC1954 cells; assay: Proliferation assay (IncuCyte cell confluence), HCC1954; conditions: Homo sapiens, concentration for 50% of maximal inhibition of cell proliferation
Protocol: as §1

[5] = test system: HCC1187 cells; assay: Proliferation assay (IncuCyte cell confluence), HCC1187; conditions: Homo sapiens, concentration for 50% of maximal inhibition of cell proliferation
Protocol: as §1

[6] = test system: HCC1170 cells; assay: Proliferation assay (IncuCyte cell confluence), HCC1170; conditions: concentration for 50% of maximal inhibition of cell proliferation
Protocol: as §1

Compound	GI50 [1] [µM]	GI50 [2] [µM]	GI50 [3] [µM]	GI50 [4] [µM]	GI50 [5] [µM]	GI50 [6] [µM]
Cc1cc(C)c(CNC(=O)c2cc(-c3ccc(N4CCN(CCNC(=O)C56CC7CC(C)(CC(C)(C7)C5)C6)CC4)nc3)cc3c2cnn3C(C)C)c(=O)[nH]1 [AM29-22A, N-((4,6-dimethyl-2-oxo-1,2-dihydropyridin-3-yl)methyl)-6-(6-(4-(2-((1R,3S)-3,5-dimethyladamantane-1-carboxamido)ethyl)piperazin-1-yl)pyridin-3-yl)-1-isopropyl-1H-indazole-4-carboxamide]	0.87	0.69				
Cc1cc(C)c(CNC(=O)c2cc(-c3ccc(N4CCN(CCNCCC56CC7CC(CC(C7)C5)C6)CC4)nc3)cc3c2cnn3C(C)C)c(=O)[nH]1 [AM16-103A, 6-(6-(4-(2-((2-((3r,5r,7r)-adamantan-1-yl)ethyl)amino)ethyl)piperazin-1-yl)pyridin-3-yl)-N-((4,6-dimethyl-2-oxo-1,2-dihydropyridin-3-yl)methyl)-1-isopropyl-1H-indazole-4-carboxamide]	1.2		1.4	2.1		
Cc1cc(C)c(CNC(=O)c2cc(-c3ccc(N4CCN(CCNC(=O)CC5C6CC7CC(C6)CC5C7)CC4)nc3)cc3c2cnn3C(C)C)c(=O)[nH]1 (stereo not drawn) [AM29-182A, 6-(6-(4-(2-(2-((1r,3r,5r,7r)-adamantan-2-yl)acetamido)ethyl)piperazin-1-yl)pyridin-3-yl)-N-((4,6-dimethyl-2-oxo-1,2-dihydropyridin-3-yl)methyl)-1-isopropyl-1H-indazole-4-carboxamide]	1.8		2.5	3.9		
CCCc1cc(C)[nH]c(=O)c1CNC(=O)c1cc(-c2ccc(N3CCN(CCNC(=O)CC45CC6CC(CC(C6)C4)C5)CC3)nc2)cc2c1cnn2C(C)C [AM16-10A, 6-(6-(4-(2-(2-((3r,5r,7r)-adamantan-1-yl)acetamido)ethyl)piperazin-1-yl)pyridin-3-yl)-1-isopropyl-N-((6-methyl-2-oxo-4-propyl-1,2-dihydropyridin-3-yl)methyl)-1H-indazole-4-carboxamide]	1.4	1.2			0.57	1.2
Cc1cc(C)c(CNC(=O)c2cc(-c3ccc(N4CCN(CCC(=O)NCC56CC7CC(CC(C7)C5)C6)CC4)nc3)cc3c2cnn3C(C)C)c(=O)[nH]1 [AM29-33A, 6-(6-(4-(3-((((3r,5r,7r)-adamantan-1-yl)methyl)amino)-3-oxopropyl)piperazin-1-yl)pyridin-3-yl)-N-((4,6-dimethyl-2-oxo-1,2-dihydropyridin-3-yl)methyl)-1-isopropyl-1H-indazole-4-carboxamide]	0.71	0.7				
Cc1cc(C)c(CNC(=O)c2cc(-c3ccc(N4CCN(CCNC(=O)C56CC7CC(CC(C7)C5)C6)CC4)nc3)cc3c2cnn3C(C)C)c(=O)[nH]1 [AM16-101A, 6-(6-(4-(2-((1s,3s)-adamantane-1-carboxamido)ethyl)piperazin-1-yl)pyridin-3-yl)-N-((4,6-dimethyl-2-oxo-1,2-dihydropyridin-3-yl)methyl)-1-isopropyl-1H-indazole-4-carboxamide]	1.1	0.69				
Cc1cc(C)c(CNC(=O)c2cc(-c3ccc(N4CCN(CCNC(=O)CC56CC7CC(C)(CC(C)(C7)C5)C6)CC4)nc3)cc3c2cnn3C(C)C)c(=O)[nH]1 [AM29-21A, N-((4,6-dimethyl-2-oxo-1,2-dihydropyridin-3-yl)methyl)-6-(6-(4-(2-(2-((1r,3R,5S,7r)-3,5-dimethyladamantan-1-yl)acetamido)ethyl)piperazin-1-yl)pyridin-3-yl)-1-isopropyl-1H-indazole-4-carboxamide]	0.2	0.28				
Cc1cc(C)c(CNC(=O)c2cc(-c3ccc(N4CCN(C(=O)CC56CC7CC(CC(C7)C5)C6)CC4)nc3)cc3c2cnn3C(C)C)c(=O)[nH]1 [AM16-92A, 6-(6-(4-(2-((1s,3s)-adamantan-1-yl)acetyl)piperazin-1-yl)pyridin-3-yl)-N-((4,6-dimethyl-2-oxo-1,2-dihydropyridin-3-yl)methyl)-1-isopropyl-1H-indazole-4-carboxamide]		1			1.1	
Cc1cc(C)c(CNC(=O)c2cc(-c3ccc(N4CCN(CCNC(=O)[C@H](C)CCC56CC7CC(CC(C7)C5)C6)CC4)nc3)cc3c2cnn3C(C)C)c(=O)[nH]1 [AM16-105A, 6-(6-(4-(2-((2R)-4-((1r,3S)-adamantan-1-yl)-2-methyl-butanamido)ethyl)piperazin-1-yl)pyridin-3-yl)-N-((4,6-dimethyl-2-oxo-1,2-dihydropyridin-3-yl)methyl)-1-isopropyl-1H-indazole-4-carboxamide]		2.3			1.2	
Cc1cc(C)c(CNC(=O)c2cc(-c3ccc(N4CCN(CCNC(=O)CC56CC7CC(CC(C7)C5)C6)CC4)nc3)cc3c2cnn3C(C)C)c(=O)[nH]1 [XY019-43, 6-(6-(4-(2-(2-((3r,5r,7r)-adamantan-1-yl)acetamido)ethyl)piperazin-1-yl)pyridin-3-yl)-N-((4,6-dimethyl-2-oxo-1,2-dihydropyridin-3-yl)methyl)-1-isopropyl-1H-indazole-4-carboxamide]	0.54	0.35	2.2	2.7	0.65	
